Source: patent US10336702B2, “Pharmaceutically active compounds” (BERGENBIO ASA, priority 2015, dated 2019)

How the values were obtained:
[1] = test system: TNBC cell line MDA-MB-231; test: 3D tumour cell growth in matrigel; type: cell-based; settings: MDA-MB-231 in matrigel, increasing concentrations, 9 days, DMSO control
Procedure: MDA-MD-231 cells were treated with increasing concentrations of EX34 or EX33 for 9 days. Treatment was initiated one day after tumour cell seeding. DMSO was used as control. The graphs in FIG. 2 show average tumour size±SEM following treatment with each of EX34 and EX33. Images of the 3D cultures were batch analysed with AMIDA software.
In order to evaluate the role of Akt3 in tumour cell growth and invasion, the effect of two compounds of the invention, the compound of Example 34 (denoted hereafter as EX34) and the compound of Example 33 (denoted hereafter as EX33), on 3D growth in matrigel was assessed.
The TNBC cell line MDA-MB-231 was seeded in matrigel and the cell cultures were treated with increasing concentrations of EX34 or EX33 for 9 days. Treatment was initiated one day after tumour cell seeding. DMSO was used as control. The average tumour sphere size was then evaluated for each treatment. Representative pictures are shown in FIG. 1 for each of the indicated treatment conditions.
Images of the 3D cultures were batch analysed with AMIDA software to quantify the 3D tumour sphere size.

[2] = test system: MDA-MB-231-D3H2LN/GPF-Luc cells; test: Invasive 3D tumour cell growth in matrigel; type: cell-based; settings: 2 μM, 72 hours, fluorescence microscopy
Procedure: The TNBC aggressive cell line MDA-MB-231-D3H2LN/GPF-Luc was seeded in matrigel on cover slides to obtain invasive 3D tumour cell colonies. Cell cultures were treated for 72 hours with DMSO (control), 2 μM EX34 or 2 μM EX33, and colonies were evaluated by fluorescence microscopy for 3D invasive growth.

[3] = test system: Akt3 in MDA-MB-231 cells; test: Cellular (nuclear) localization of Akt3 by immune fluorescence microscopy; type: cell-based; settings: 2 μM, 36 hours
Procedure: FIGS. 4 and 5 refer to the cellular localization of Akt3 in MDA-MB-231 cells that were treated for 36 hours with EX33 or EX34. In FIG. 4, cells were stained to visualize the nucleus (top left panel) and Akt3 (top right panel) and analyzed using immune fluorescence microscopy. […] The results were obtained using TissueQuest Software.
The cellular program of epithelial to mesenchymal transition (EMT) is utilized by tumour cells to develop drug resistance and to metastasize. Nuclear translocation of Akt3 is considered crucial for Akt3's ability to phosphorylate SNAIL and induce EMT.
MDA-MB-231 cells were treated for 36 hours with Vehicle (DMSO) or 2 μM EX34. Cells were stained to visualize the nucleus and Akt3. […] Mean intensity of Akt3 in the nucleus was evaluated after treatment with DMSO (control) or EX33 using TissueQuest Software (see FIG. 5).

[4] = test system: NSCLC cell line H2086; test: EMT induction (Vimentin immune blotting) with TGF-β under hypoxia; type: cell-based; settings: H2086 cells, 20 ng/ml TGF-β, 1% O2, 5 days, 1 μM compound
Procedure: EMT induction was evaluated by quantification of the EMT marker Vimentin. NSCLC H2086 cells were treated with 20 ng/ml TGF-β under hypoxic conditions (1% O2) for 5 days. The effect on Vimentin was evaluated by immune blotting for cells treated with Vehicle (DMSO), 1 μM EX33 or 1 μM EX34, and the results are shown in FIG. 7. Glyceraldehyde-3-phosphate dehydrogenase (GAPDH) was used as loading control. The band intensity of Vimentin has been related to the intensity of the GAPDH band.
NSCLC H2086 cells were treated with 20 ng/ml TGF-β under hypoxic conditions (1% O2) for 5 days to induce EMT. The ability of EX33 and EX34 to prevent EMT was evaluated by quantification of the EMT marker Vimentin. The effect on Vimentin was evaluated by immune blotting for cells treated with Vehicle (DMSO), 1 μM EX33 or 1 μM EX34. GAPDH was used as loading control. The band intensity of Vimentin has been related to the intensity of the GAPDH band.

[5] = test system: hepatic stellate cell line LX2; test: α-sma protein and mRNA levels in activated hepatic stellate cells; type: cell-based, human
Procedure: LX2 cells were treated for 72 hours with the indicated dosages of EX33 (μM). Cell lysates were analyzed by immune blotting for alpha-smooth muscle actin (α-SMA), PCNA and total p-Akt. Actin was used as a loading control.
LX2 cells were treated for 24 hours with the indicated dosages of EX33 (μM). mRNA was isolated and analyzed by RT-PCR for α-SMA expression. Expression level in Vehicle treated cells (0 EX33) was set to 1, and α-sma expression levels following treatment with indicated dosages of EX33 calculated relative to that.
Liver fibrosis is characterized by accumulation of extracellular matrix components such as alpha-smooth muscle actin (α-sma) mainly derived from activated hepatic stellate cells (HSCs).
The role of AKT3 in liver fibrosis was analyzed by studying the efficacy of EX33 to block HSC activation. The human activated hepatic stellate cell line LX2 was treated with different dosages of EX33 and the effects on α-sma protein and mRNA levels were analysed by immune blotting (see FIG. 9) and RT-PCR (see FIG. 10) respectively.

[6] = test system: pAkt1, pAkt2 and pAkt3 in MCF10DCIS xenograft tumours; test: Akt phosphorylation in MCF10DCIS xenograft tumours (SureFire); type: in vivo, mice; settings: 25 mg/kg oral gavage once a day for 2, 4 or 6 days; pAkt1, pAkt2, pAkt3 measured
Procedure: Mice carrying MCF10DCIS xenograft tumours were treated with Vehicle or EX33 at 25 mg/kg once a day for 2, 4 or 6 days. Tumours were harvested and analyzed by SureFire assay for levels of pAkt1, pAkt2 and pAkt3. Average±SEM are shown, n=4.
Nude mice were injected subcutaneously with MCF10DCIS cells. When the average tumour size reached 440 mm^3, EX33 was administered at 25 mg/kg for 2, 4 or 6 days. EX33 was given by oral gavage once a day. Tumours were harvested and analyzed by SureFire assay for levels of pAkt1, pAkt2 and pAkt3. Average±SEM are shown, n=4.

[7] = test system: HMLER-Akt3 cells; test: HMLER-Akt3 tumour seeding xenograft model; type: in vivo, NSG mice; settings: for Tumour incidence (tumours formed/total number of implantations): 100 mg/kg once a day, after 2 weeks, tumours exceeding 20 mm^3
Procedure: HMLER cells are not very tumourigenic. However, after enforced expression of Akt3, these cells are able to initiate tumours.
Mice implanted with 10^5 or 10^6 HMLER-Akt3 cells were treated with vehicle, EX34 or EX33 at 100 mg/kg once a day. Treatment was initiated on the day of tumour cell implantation. A total of 10 tumours were implanted for each treatment condition. Tumour incidence was evaluated after 2 weeks and tumour size cut of was set at 20 mm^3. Significance determined by unpaired Student two-tailed t test.
The numbers are given as tumours formed/total number of implantations. Significance was determined by unpaired two-tailed Student t-test. Ns: not significant.

[8] = test system: MDA-MB-468 cells; test: TNBC MDA-MB-468 subcutaneous xenograft model; type: in vivo, NSG mice; settings: 50 mg/kg b.i.d. oral gavage, 5-days on 2-days off, 19 days
Procedure: Tumour volumes of mice treated with vehicle or EX33 (50 mg/kg b.i.d.) were measured by caliper twice a week, over the course of 19 days. Data is given as Mean±SEM, n=6-10. Statistical analysis was performed by an unpaired two-tailed Student t test.
The MDA-MB-468 model has previously been reported in the literature to be dependent upon Akt3 for xenograft tumour growth (Chin et al., Cancer Res 2014).
NSG mice were injected subcutaneously with MDA-MB-468 cells, and the effect on tumour growth of EX33 was evaluated. EX33 was administered at 50 mg/kg, and was given by oral gavage twice a day in a 5-days on and 2-days off cycle. Tumour growth was monitored by caliper measurements twice a week.
Data are given as Mean±SEM, n=6-10. Statistical analysis was performed by unpaired two-tailed Student t test.

[9] = test system: MBBR3A human melanoma cancer cell line; test: MBBR3A human melanoma sub-cutaneous xenograft model; type: in vivo, Nude mice; settings: 50 mg/kg b.i.d. oral gavage, 5-days on 2-days off, 15 days
Procedure: Tumour volumes of mice treated with vehicle or EX33 (50 mg/kg b.i.d.) were measured by caliper twice a week, over the course of 15 days. Data is given as Mean±SEM, n=10-12. Statistical analysis was performed by an unpaired two-tailed Student t test.
Nude mice were injected subcutaneously with MBBR3A cells, and the effect on tumour growth of EX33 was evaluated. EX33 was administered at 50 mg/kg EX33 given by oral gavage twice a day in a 5-days on and 2-days off cycle. Tumour growth was monitored by caliper measurements twice a week.
Data are given as Mean±SEM, n=10-12. Statistical analysis was performed by unpaired two-tailed Student t test.

## CC(=O)N(C)[C@H]1CC[C@H](CC(=O)Nc2cc(-c3ccccc3)c(-c3ccc(C4(N)CCC4)cc3)cn2)CC1 [EX33]
[1]
  3D tumour cell growth (average tumour sphere size): dose-dependent inhibition of 3D tumour cell growth
[2]
  invasive 3D tumour cell growth: inhibited tumour cell growth
[3]
  nuclear localization of Akt3: Akt3 stains cytoplasmic
[4]
  EMT induction (EMT marker Vimentin): prevent EMT induction
[5]; 24 hours, RT-PCR
  α-sma mRNA level: decreases the levels of α-sma mRNA and protein
[5]; 72 hours, immune blotting
  α-sma protein level: decreases the levels of α-sma mRNA and protein
[6]
  level of Akt3 phosphorylation in xenograft tumours: selectively reduced the level of Akt3 phosphorylation
[7]; 100 mg/kg once a day from day of implantation
  tumour initiation: prevented tumour initiation
[7]; 10^5 HMLER-Akt3 cells implanted
  Tumour incidence (tumours formed/total number of implantations): 0/10^<0.0001
[7]; 10^6 HMLER-Akt3 cells implanted
  Tumour incidence (tumours formed/total number of implantations): 0/10^<0.0001
[8]
  primary tumour growth (tumour volume): reduced tumour growth compared to vehicle treated mice
[9]
  primary tumour growth (tumour volume): reduced tumour growth compared to vehicle treated mice
